Legend:
Format in all cases: cell-based
BRAF G466V = target: T1, BRAF G466V (Homo sapiens, UniProt P15056, G466V); assay: BRAF HiBiT degradation assay, C-terminal HiBiT-tagged BRAF G466V overexpressed in HCT-116 BRAF−/− cells (clone 8), Nano-Glo HiBiT Lytic assay
T1 construct: Horizon Discovery (HCT-116 BRAF−/− cells); host or cells: HCT-116 BRAF−/− cells, clone 8, lentiviral transduction
Procedure, shortened: (§1)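 HCT-116 BRAF−/− cells stably expressing the tagged mutant were seeded at 3,000 cells/well and grown 24 h at 37 °C before an 11-point half-log series from 1 μM to 0.01 nM, run in duplicate at 0.2% DMSO. Lytic HiBiT luminescence gave % protein remaining versus DMSO controls; DC50 was the fitted concentration at 50%.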

BRAF V600E = target: T2, BRAF V600E (Homo sapiens, UniProt P15056, V600E); assay: BRAF HiBiT degradation assay, C-terminal HiBiT-tagged BRAF V600E A375 cells (clone 1F10), Nano-Glo HiBiT Lytic assay; conditions: for Dmax: A-375
T2 construct: endogenous C-terminal HiBiT fusion tag on BRAF V600E allele; endogenous in cells; host or cells: A375 clone 1F10 (CRISPR-Cas9 knock-in of the HiBiT tag; parental A375 from ATCC)
Procedure, shortened: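 A375 cells with CRISPR knock-in C-terminal HiBiT on endogenous BRAF V600E (clone 1F10) were seeded and cultured 24 h at 37 °C, then dosed with an 11-point half-log series (1 μM to 0.01 nM, duplicate, 0.2% DMSO). Lytic HiBiT luminescence gave % protein remaining; DC50 was the fitted concentration at 50%.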

BRAF D594G = target: T3, BRAF D594G (Homo sapiens, UniProt P15056, D594G); assay: BRAF HiBiT degradation assay, C-terminal HiBiT-tagged BRAF D594G overexpressed in HCT-116 BRAF−/− cells (clone 63), Nano-Glo HiBiT Lytic assay
T3 construct: Horizon Discovery (HCT-116 BRAF−/− cells); host or cells: HCT-116 BRAF−/− cells, clone 63, lentiviral transduction
Procedure, shortened: as §1

BRAF G469A = target: T4, BRAF G469A (Homo sapiens, UniProt P15056, G469A); assay: BRAF HiBiT degradation assay, C-terminal HiBiT-tagged BRAF G469A overexpressed in HCT-116 BRAF−/− cells (clone 34), Nano-Glo HiBiT Lytic assay
T4 construct: Horizon Discovery (HCT-116 BRAF−/− cells); host or cells: HCT-116 BRAF−/− cells, clone 34, lentiviral transduction
Procedure, shortened: as §1

[1] = BRAF G466V (Class 3), HCT-116 BRAF−/− cells, DC50 at 50% degradation
[2] = BRAF G466V (Class 3), HCT-116 BRAF−/− cells, observed Dmax relative to DMSO control
[3] = A375 (BRAF V600E, Class 1), DC50 at 50% degradation
[4] = A375 (BRAF V600E, Class 1), observed Dmax, % protein degraded relative to DMSO control
[5] = BRAF D594G (Class 3), HCT-116 BRAF−/− cells, DC50 at 50% degradation
[6] = BRAF D594G (Class 3), HCT-116 BRAF−/− cells, observed Dmax relative to DMSO control
[7] = BRAF G469A (Class 2), HCT-116 BRAF−/− cells, DC50 at 50% degradation
[8] = BRAF G469A (Class 2), HCT-116 BRAF−/− cells, observed Dmax relative to DMSO control
[9] = BRAF G466V, DC50 at 50%: fitted conc. at Y=50
[10] = HCT-116, BRAF G466V, percentage protein degraded at maximal compound effect relative to DMSO
[11] = A375 (BRAF V600E), DC50 at 50%: fitted conc. at Y=50
[12] = A375 (BRAF V600E), percentage protein degraded at maximal compound effect relative to DMSO
[13] = BRAF D594G, DC50 at 50%: fitted conc. at Y=50
[14] = HCT-116, BRAF D594G, percentage protein degraded at maximal compound effect relative to DMSO
[15] = Class 2, BRAF G469A, DC50 at 50%: fitted conc. at Y=50
[16] = HCT-116, Class 2, BRAF G469A, percentage protein degraded at maximal compound effect relative to DMSO

T3 sequence (P15056 whole entry D594G): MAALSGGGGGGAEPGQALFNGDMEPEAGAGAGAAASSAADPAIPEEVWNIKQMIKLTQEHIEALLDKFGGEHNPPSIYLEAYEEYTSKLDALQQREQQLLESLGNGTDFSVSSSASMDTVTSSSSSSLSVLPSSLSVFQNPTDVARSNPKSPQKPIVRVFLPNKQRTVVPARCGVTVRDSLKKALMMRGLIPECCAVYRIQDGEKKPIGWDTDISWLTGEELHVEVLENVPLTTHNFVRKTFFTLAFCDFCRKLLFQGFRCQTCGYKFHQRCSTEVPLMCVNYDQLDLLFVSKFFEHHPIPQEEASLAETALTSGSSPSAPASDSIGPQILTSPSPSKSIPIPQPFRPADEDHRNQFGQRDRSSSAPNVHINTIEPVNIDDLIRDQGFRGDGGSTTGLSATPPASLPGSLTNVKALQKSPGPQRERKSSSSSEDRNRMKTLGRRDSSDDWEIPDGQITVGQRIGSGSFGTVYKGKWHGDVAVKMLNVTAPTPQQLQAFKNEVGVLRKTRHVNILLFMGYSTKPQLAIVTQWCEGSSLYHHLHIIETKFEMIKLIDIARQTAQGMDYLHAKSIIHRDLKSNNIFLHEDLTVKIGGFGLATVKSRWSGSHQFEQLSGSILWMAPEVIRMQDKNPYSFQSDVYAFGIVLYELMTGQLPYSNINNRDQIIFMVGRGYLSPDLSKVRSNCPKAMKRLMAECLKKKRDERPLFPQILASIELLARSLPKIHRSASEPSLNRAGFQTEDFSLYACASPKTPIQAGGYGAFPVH
T1 sequence (P15056 whole entry G466V): as the sequence (P15056 whole entry D594G) above, with G466V, G594D counted along it
T4 sequence (P15056 whole entry G469A): as the sequence (P15056 whole entry D594G) above, with G469A, G594D counted along it
T2 sequence (P15056 whole entry V600E, the tested form may be a part): as the sequence (P15056 whole entry D594G) above, with G594D, V600E counted along it

| Structure (SMILES) | DC50 (BRAF G466V; [1]) | Dmax (BRAF G466V; [2]) | DC50 (BRAF V600E; [3]) | Dmax (BRAF V600E; [4]) | DC50 (BRAF D594G; [5]) | Dmax (BRAF D594G; [6]) | DC50 (BRAF G469A; [7]) | Dmax (BRAF G469A; [8]) | DC50 (BRAF G466V; [9]) | Dmax (BRAF G466V; [10]) | DC50 (BRAF V600E; [11]) | Dmax (BRAF V600E; [12]) | DC50 (BRAF D594G; [13]) | Dmax (BRAF D594G; [14]) | DC50 (BRAF G469A; [15]) | Dmax (BRAF G469A; [16]) |
| --- | --- | --- | --- | --- | --- | --- | --- | --- | --- | --- | --- | --- | --- | --- | --- | --- |
| CCCS(=O)(=O)Nc1cccc(-c2nc(C3CCC4(CC3)CCN(CC[C@H]3CCN(c5ccc(C6CCC(=O)NC6=O)cn5)C3)CC4)sc2-c2ccnc(N)n2)c1F (mixture of isomers) [Compound 259, N-{3-[5-(2-aminopyrimidin-4-yl)-2-(3-{2-[(3S)-1-{5-[(3RS)-2,6-dioxopiperidin-3-yl]pyridin-2-yl}pyrrolidin-3-yl]ethyl}-3-azaspiro[5.5]undecan-9-yl)-1,3-thiazol-4-yl]-2-fluorophenyl}propane-1-sulfonamide] | > 500 nM | < 30% | 10 to 50 nM | 30 to 70% | > 500 nM | < 30% | > 500 nM | < 30% | – | – | – | – | – | – | – | – |
| CCCS(=O)(=O)Nc1cccc(-c2cn(C3CCN(C(=O)C4CCN(C(=O)C5CCN(c6ccc(C7CCC(=O)NC7=O)cn6)CC5)CC4)CC3)nc2-c2ccncc2)c1F (racemic) [Compound 7, Rac-N-[3-(1-{1-[1-(1-{5-[(3R)-2,6-dioxopiperidin-3-yl]pyridin-2-yl}piperidine-4-carbonyl)piperidine-4-carbonyl]piperidin-4-yl}-3-(pyridin-4-yl)-1H-pyrazol-4-yl)-2-fluorophenyl]propane-1-sulfonamide] | – | – | – | – | – | – | – | – | 50 to 500 nM | 30 to 70% | 10 to 50 nM | > 70% | > 500 nM | 30 to 70% | > 500 nM | 30 to 70% |
| O=C1CC[C@H](c2ccc(N3CCC(CN4CCN(c5ccc(-n6cc(-c7cc(F)cc(NS(=O)(=O)N8CCCC8)c7F)c(-c7ccncc7)n6)cc5)CC4)CC3)nc2)C(=O)N1 [Compound 301, N-{3-[1-(4-{4-[(1-{5-[(3R)-2,6-dioxopiperidin-3-yl]pyridin-2-yl}piperidin-4-yl)methyl]piperazin-1-yl}phenyl)-3-(pyridin-4-yl)-1H-pyrazol-4-yl]-2,5-difluorophenyl}pyrrolidine-1-sulfonamide] | < 10 nM | > 70% | < 10 nM | > 70% | < 10 nM | 30 to 70% | 10 to 50 nM | > 70% | – | – | – | – | – | – | – | – |
| O=C1CCC(c2ccc(N3CCC(CN4CCN(c5ccc(-n6cc(-c7cc(C(F)F)cc(NS(=O)(=O)N8CCCC8)c7F)c(-c7ccncc7)n6)c(F)c5)CC4)CC3)nc2)C(=O)N1 (racemic) [Compound 357, Rac-N-[5-(difluoromethyl)-3-[1-(4-{4-[(1-{5-[(3R)-2,6-dioxopiperidin-3-yl]pyridin-2-yl}piperidin-4-yl)methyl]piperazin-1-yl}-2-fluorophenyl)-3-(pyridin-4-yl)-1H-pyrazol-4-yl]-2-fluorophenyl]pyrrolidine-1-sulfonamide] | < 10 nM | > 70% | < 10 nM | > 70% | < 10 nM | 30 to 70% | 10 to 50 nM | > 70% | – | – | – | – | – | – | – | – |
| O=C1CCN(c2ccc(N3CCC(CN4CCN(c5ccc(-n6cc(-c7cc(Cl)cc(NS(=O)(=O)N8CCCC8)c7F)c(-c7ccncc7)n6)cc5F)CC4)CC3)cc2)C(=O)N1 [Compound 361, N-[5-chloro-3-(1-{4-[4-({1-[4-(2,4-dioxo-1,3-diazinan-1-yl)phenyl]piperidin-4-yl}methyl)piperazin-1-yl]-3-fluorophenyl}-3-(pyridin-4-yl)-1H-pyrazol-4-yl)-2-fluorophenyl]pyrrolidine-1-sulfonamide] | < 10 nM | > 70% | < 10 nM | > 70% | < 10 nM | 30 to 70% | > 500 nM | 30 to 70% | – | – | – | – | – | – | – | – |
| CCCS(=O)(=O)Nc1cccc(-c2nc(C(C)(C)C)sc2-c2ccnc(Nc3ccc(C4CCN(CC5CCN(c6ccc(C(=O)NC7CCC(=O)NC7=O)cc6)CC5)CC4)cc3)n2)c1F (racemic) [Compound 171, Rac-4-{4-[(4-{4-[(4-{2-tert-butyl-4-[2-fluoro-3-(propane-1-sulfonamido)phenyl]-1,3-thiazol-5-yl}pyrimidin-2-yl)amino]phenyl}piperidin-1-yl)methyl]piperidin-1-yl}-N-[(3R)-2,6-dioxopiperidin-3-yl]benzamide] | – | – | – | – | – | – | – | – | > 500 nM | < 30% | 50 to 500 nM | 30 to 70% | > 500 nM | < 30% | > 500 nM | < 30% |
| CCCS(=O)(=O)Nc1cccc(-c2nc(C(C)(C)C)sc2-c2ccnc(Nc3ccc(N4CCN(CC5CCN(c6ccc([C@H]7CCC(=O)NC7=O)cc6)CC5)CC4)cc3)n2)c1F [Compound 59, N-[3-(2-tert-butyl-5-{2-[(4-{4-[(1-{4-[(3R)-2,6-dioxopiperidin-3-yl]phenyl}piperidin-4-yl)methyl]piperazin-1-yl}phenyl)amino]pyrimidin-4-yl}-1,3-thiazol-4-yl)-2-fluorophenyl]propane-1-sulfonamide] | – | – | – | – | – | – | – | – | < 10 nM | > 70% | 10 to 50 nM | > 70% | 10 to 50 nM | 30 to 70% | > 500 nM | 30 to 70% |
| O=C1CCC(c2ccc(N3CCC(CN4CCN(c5ccc(-n6cc(-c7cc(Cl)cc(NS(=O)(=O)N8CC[C@@H](F)C8)c7F)c(-c7ccncc7)n6)cc5F)CC4)CC3)nc2)C(=O)N1 (mixture of isomers) [Compound 366, (3R)—N-{5-chloro-3-[1-(4-{4-[(1-{5-[(3RS)-2,6-dioxopiperidin-3-yl]pyridin-2-yl}piperidin-4-yl)methyl]piperazin-1-yl}-3-fluorophenyl)-3-(pyridin-4-yl)-1H-pyrazol-4-yl]-2-fluorophenyl}-3-fluoropyrrolidine-1-sulfonamide] | < 10 nM | > 70% | < 10 nM | > 70% | < 10 nM | > 70% | < 10 nM | > 70% | – | – | – | – | – | – | – | – |
| CCCS(=O)(=O)Nc1cccc(-c2nc(C3CCC4(CC3)CCN(C(=O)C3CCN(c5ccc(C6CCC(=O)NC6=O)cn5)CC3)CC4)sc2-c2ccnc(N)n2)c1F (racemic) [Compound 246, Rac-N-{3-[5-(2-aminopyrimidin-4-yl)-2-[3-(1-{5-[(3R)-2,6-dioxopiperidin-3-yl]pyridin-2-yl}piperidine-4-carbonyl)-3-azaspiro[5.5]undecan-9-yl]-1,3-thiazol-4-yl]-2-fluorophenyl}propane-1-sulfonamide] | > 500 nM | < 30% | 10 to 50 nM | > 70% | > 500 nM | 30 to 70% | > 500 nM | < 30% | – | – | – | – | – | – | – | – |
| CCCS(=O)(=O)Nc1cccc(-c2nc(C(C)(C)C)sc2-c2ccnc(Nc3cnn(CC4CCN(C[C@H]5CC[C@H](Oc6ccc(C7CCC(=O)NC7=O)cc6)CC5)CC4)c3)n2)c1F (mixture of isomers) [Compound 84, N-(3-{2-tert-butyl-5-[2-({1-[(1-{[(1r,4r)-4-{4-[(3RS)-2,6-dioxopiperidin-3-yl]phenoxy}cyclohexyl]methyl}piperidin-4-yl)methyl]-1H-pyrazol-4-yl}amino)pyrimidin-4-yl]-1,3-thiazol-4-yl}-2-fluorophenyl)propane-1-sulfonamide] | – | – | – | – | – | – | – | – | > 500 nM | < 30% | 50 to 500 nM | > 70% | > 500 nM | 30 to 70% | > 500 nM | < 30% |
